From patent US4077981A, “Certain 1-alkyl-2-dichlorophenyliminopyrrolidines” (Bayer Aktiengesellschaft, priority 1968, dated 1978)

How the values were obtained:
[1] = system: Boophilus, Biarra strain; experiment: In-vitro test for ovicidal and adulticidal effect on ticks; parameters: species or system Boophilus microplus
Method: In-vitro test for ovicidal and adulticidal effect on ticks
The ovicidal effect is determined as stated in Example 1.
In addition, the adulticidal effectiveness of the preparation of the given active compound after 24 hours is determined by ascertaining the voluntary movement of limbs and bodies of the immersed adult ticks after stimulation with a fine needle compared with the voluntary movement of limbs and bodies of the untreated adult ticks. The effectiveness is stated in %, 100% meaning that no movements of any kind of the limbs and bodies were any longer detectable, and 0% signifying that the ticks moved limbs and bodies in normal manner.
The results below were obtained in a similar manner to those in accordance with Example 4.

[2] = system: Boophilus microplus, Biarra strain (resistant); experiment: In-vitro test for ovicidal effect on ticks (Biarra strain); conditions: Table 1b; for Ovicidal effect: 100% inhibition with the stated concentration of active compound: concentration giving 100% inhibition; for Ovicidal effect: >50% inhibition with the stated concentration of active compound: concentration giving >50% inhibition
Method: In-vitro Test for Ovicidal Effect on Ticks
The emulsion concentrate so obtained is diluted with water to the application concentration desired in each case.
After immersion of, in each case, 10 female specimens of the various strains of ticks, the individual ticks are transferred to plastic dishes, the bottom of each of which is covered with a disc of filter paper.

[3] = system: Boophilus microplus, Biarra strain; experiment: In-vivo test against ticks on cattle; parameters: species or system Boophilus microplus (on cattle); conditions: 0.3%; for Total number of female adult ticks which reach development on the cattle: total 1-21 days
Method: In-vivo test against ticks on cattle
3 parts of the particular active compound are mixed with 7 parts of a mixture of equal parts by weight of ethyleneglycol monomethyl ether and nonylphenyl polyglycol ether. The emulsion concentrate so obtained is diluted with water to the application concentration desired in each case.
Cattle which have been infected (12 times at intervals of 2 days) with resistant larvae of ticks of the species Boophilus microplus, Biarra strain, are sprayed on the 24th day after the first infection with the preparation of the given active compound so obtained.
The effect of the preparation of the given active compound is determined by ascertaining the number of adult female ticks which have reached development on the treated cattle and later lay viable eggs. This number is compared with the number of adult femal ticks which have reached development on untreated cattle.
As a measure of the intensity of the infestation before treatment, there is used the number of adult females which reach development in the case of the treated and untreated animals in the last three days before the time of treatment.

[4] = Table 4, concentration giving 50% inhibition
[5] = Table 4, concentration giving 100% inhibition
[6] = Table 5, concentration giving 50% inhibition
[7] = Table 5, concentration giving 100% inhibition
[8] = days before treatment -2 -1 0 (baseline)

Row | Compound | Adulticidal and ovicidal effect: 50% inhibition with the stated concentration of active compound [1, 4] [% by weight] | Adulticidal and ovicidal effect: 100% inhibition with the stated concentration of active compound [1, 5] [% by weight] | Adulticidal and ovicidal effect: 50% inhibition with the stated concentration of active compound [1, 6] [% by weight] | Adulticidal and ovicidal effect: 100% inhibition with the stated concentration of active compound [1, 7] [% by weight] | other results
1 | C=CCN1CCCC1=Nc1ccc(F)c(Cl)c1 | 0.08 | 0.1 | – | – | –
2 | CC=CCN1CCCC1=Nc1ccc(Cl)cc1C | – | – | 0.008 | 0.01 | –
3 | C=CCN1CCCC1=Nc1ccc(Cl)c(Br)c1 | 0.05 | 0.1 | – | – | –
4 | CCCCN1CCCC1=Nc1ccc(Cl)c(Cl)c1 [Compound 71] | – | – | – | – | Ovicidal effect: 100% inhibition with the stated concentration of active compound [2]: 0.03 % by weight; Ovicidal effect: >50% inhibition with the stated concentration of active compound [2]: 0.01 % by weight; Number of female adult ticks which reach development on the cattle ([3]; days after treatment +1+2+3): 3; Number of female adult ticks which reach development on the cattle ([3]; days after treatment +4+5+6): 1; Number of female adult ticks which reach development on the cattle ([3]; days after treatment +7+8+9): 0; Number of female adult ticks which reach development on the cattle ([3]; days after treatment +10+11+12): 11; Number of female adult ticks which reach development on the cattle ([3]; days after treatment +13+14+15): 1; Number of female adult ticks which reach development on the cattle ([3]; days after treatment +16+17+18): 2; Number of female adult ticks which reach development on the cattle ([3]; days after treatment +19+20+21): 0; Number of female adult ticks which reach development on the cattle [3, 8]: 231; Total number of female adult ticks which reach development on the cattle [3]: 18
5 | C=CCCN1CCCC1=Nc1ccc(C)c(Cl)c1 | – | – | 0.02 | 0.03 | –
6 | C=C(C)CN1CCCC1=Nc1ccc(Cl)cc1Cl | – | – | 0.01 | 0.03 | –
7 | CCN1CCCC1=Nc1ccc(F)c(Cl)c1 | 0.1 | 0.3 | – | – | –
8 | C=C(C)CN1CCCC1=Nc1ccc(Cl)c(Cl)c1 | – | – | 0.03 | 0.1 | –
9 | C=CCN1CCCC1=Nc1ccc(C)c(Br)c1 | – | – | 0.03 | 0.1 | –
10 | C=C(C)CN1CCCC1=Nc1ccc(Cl)cc1C | – | – | 0.02 | 0.03 | –
11 | CCCCN1CCCC1=Nc1ccc(C)c(Br)c1 | – | – | 0.02 | 0.03 | –
12 | CCCN1CCCC1=Nc1ccc(Cl)c(Br)c1 | 0.1 | 0.3 | – | – | –
13 | C=CCN1CCCC1=Nc1ccc(Br)c(C)c1 | – | – | 0.03 | 0.1 | –
14 | C=CCCN1CCCC1=Nc1ccc(Cl)c(Cl)c1 | – | – | 0.1 | 0.3 | –
15 | C=CCN1CCCC1=Nc1ccc(Br)c(Br)c1 | 0.05 | 0.1 | – | – | –
16 | C=C(C)CN1CCCC1=Nc1ccc(C)c(Cl)c1 | – | – | 0.03 | 0.1 | –

Row | Compound | Adulticidal and ovicidal effect: 50% inhibition with the stated concentration of active compound [1, 4] [% by weight] | Adulticidal and ovicidal effect: 100% inhibition with the stated concentration of active compound [1, 5] [% by weight] | Adulticidal and ovicidal effect: 50% inhibition with the stated concentration of active compound [1, 6] [% by weight] | Adulticidal and ovicidal effect: 100% inhibition with the stated concentration of active compound [1, 7] [% by weight] | other results
17 | CC=CCN1CCCC1=Nc1ccc(Cl)c(C)c1 | – | – | 0.02 | 0.03 | –
18 | C=CCN1CCCC1=Nc1ccc(Cl)c(Cl)c1 [Compound 41] | – | – | – | – | Ovicidal effect: 100% inhibition with the stated concentration of active compound [2]: 0.03 % by weight; Ovicidal effect: >50% inhibition with the stated concentration of active compound [2]: 0.01 % by weight; Number of female adult ticks which reach development on the cattle ([3]; days after treatment +1+2+3): 0; Number of female adult ticks which reach development on the cattle ([3]; days after treatment +4+5+6): 0; Number of female adult ticks which reach development on the cattle ([3]; days after treatment +7+8+9): 7; Number of female adult ticks which reach development on the cattle ([3]; days after treatment +10+11+12): 6; Number of female adult ticks which reach development on the cattle ([3]; days after treatment +13+14+15): 4; Number of female adult ticks which reach development on the cattle ([3]; days after treatment +16+17+18): 0; Number of female adult ticks which reach development on the cattle ([3]; days after treatment +19+20+21): 0; Number of female adult ticks which reach development on the cattle [3, 8]: 262; Total number of female adult ticks which reach development on the cattle [3]: 17
19 | CCCCN1CCCC1=Nc1ccc(Br)c(C)c1 | – | – | 0.05 | 0.1 | –
20 | C=C(C)CN1CCCC1=Nc1cc(Cl)c(Cl)cc1Cl | – | – | 0.1 | 0.3 | –
21 | CC=CCN1CCCC1=Nc1ccc(Cl)c(Cl)c1 | 0.03 | 0.01 | – | – | –
22 | C=C(C)CN1CCCC1=Nc1ccc(Cl)c(C)c1 | – | – | 0.01 | 0.1 | –
23 | CCN1CCCC1=Nc1ccc(Cl)c(Br)c1 | 0.05 | 0.1 | – | – | –
24 | C=CCN1CCCC1=Nc1ccc(C)c(Cl)c1 | 0.01 | 0.03 | – | – | –
25 | CCCCN1CCCC1=Nc1ccc(F)c(Cl)c1 | 0.03 | 0.1 | – | – | –
26 | CCCCN1CCCC1=Nc1ccc(Cl)c(Br)c1 | 0.03 | 0.1 | – | – | –
27 | CCCN1CCCC1=Nc1ccc(F)c(Cl)c1 | 0.03 | 0.1 | – | – | –
28 | CC=CCN1CCCC1=Nc1cc(Cl)c(Cl)cc1Cl | – | – | 0.03 | 0.1 | –
29 | C=CCN1CCCC1=Nc1ccc(Cl)c(C)c1 | 0.02 | 0.03 | – | – | –
30 | C=CCCN1CCCC1=Nc1ccc(Cl)cc1C | – | – | 0.008 | 0.01 | –
31 | CC=CCN1CCCC1=Nc1ccc(C)c(Cl)c1 | – | – | 0.008 | 0.1 | –
